We go through 4 compounds from publication PMC7904790 (Nature Communications, 2021).

Like-named read-outs stand apart in the source and are kept apart here.

The test system of data set [1] is H2228. Put plainly: cells. More on the design: CellTiter-Glo viability of fusion-positive human cancer cell lines. Conditions: Homo sapiens, NCI-H2228, 72 h.
Data set [2] has as its system H3122. The data set is described as follows: cells. Details: CellTiter-Glo viability of fusion-positive human cancer cell lines. Conditions: Homo sapiens, NCI-H3122, 72 h.
Data set [3] concerns JFCR-018-1. Put plainly: cells. More on the design: CellTiter-Glo viability of fusion-positive human cancer cell lines. Conditions: 72 h.
Data set [4] deals with JFCR-028-3. Put plainly: cells. Details: CellTiter-Glo viability of fusion-positive human cancer cell lines. Conditions: 72 h.
For data set [5], the system named is KARPAS299. The data set is described as follows: cells. Conditions: Homo sapiens, KARPAS-299, 72 h. More on the design: CellTiter-Glo viability of fusion-positive human cancer cell lines.
Data set [6] deals with MCC-003. The data set is described as follows: cells. To be noted: 72 h. Details: CellTiter-Glo viability of fusion-positive human cancer cell lines.
Data set [7] relates to T1, EML4-ALK WT.
T1 construct: EML4-ALK fusion, wild-type kinase domain, expressed in Ba/F3 cells
The data set is described as follows: cells. More on the design: CellTiter-Glo viability of Ba/F3 cells dependent on EML4-ALK, without IL-3. To be noted: Ba/F3 EML4-ALK, 72 h. On the procedure: To identify drugs that can overcome these mutations, we screened our focused 90-inhibitor library using Ba/F3 cells expressing EML4-ALK I1171N + F1174I and I1171N + L1198H. At a concentration of 50 nM, gilteritinib suppressed the viability of both wild-type (WT) and compound mutant Ba/F3 cells (Fig. 1a). Since gilteritinib has reported as multi-kinase inhibitor, we first evaluated whether the ALK inhibitory efficacy of gilteritinib is driven by on-target activity or not. As a result of western blot analysis, gilteritinib suppressed the autophosphorylation of ALK in EML4-ALK-expressing Ba/F3 cells (Fig. 1b and Supplementary Fig. 1). […] As well as Ba/F3 cell model, we verified the activity of gilteritinib to H3122 cell line that is EML4-ALK-positive NSCLC cells. […] Then, the inhibitory concentration of gilteritinib is matched between ALK phosphorylation and its downstream signals. […] Further, using the phosphoproteomics data, kinase substrate-enrichment analysis (KSEA) predicted activate kinase candidates as potential gilteritinib targets and identified ALK as the most likely regulated protein (Fig. 1e, Supplementary Figs. 3 and 4, and Supplementary Table 2). To establish Ba/F3 cells expression WT or mutant EML4-ALK, TPM3-NTRK1, and CD74-ROS1 fusion proteins, pLenti6.3 vectors containing the cDNA of these fusion oncogenes were transfected into 293FT cells using packaging plasmids (ViraPower) for lentivirus production. Ba/F3 cells were infected using lentivirus-containing medium supplemented with polybrene (8 μg/ml), and after 24 h of incubation, the infected cells were selected using 7 μg/ml blasticidin (Invitrogen) for 1 week. After selection, each EML4-ALK-, TPM3-NTRK1-, and CD74-ROS1-expressing cell line was cultured in D-10 without IL-3. […] To stablise H3122, JFCR-028-3, MCC-003 cells expression WT or mutant EML4-ALK, KRAS G12C, cells were infected using lentivirus-containing medium supplemented with polybrene (8 μg/ml). After 24 h of incubation, the infected cells were selected using 7 μg/ml blasticidin for H3122, JFCR028-3, and 10 μg/ml for MCC-003, respectively. To stablise H3122 cells expression AXL, pHAGE-AXL vector (purchased from addgene) was transfected into 293FT cells using packaging plasmids for lentivirus production. H3122 cells were infected using lentivirus-containing medium supplemented with polybrene (8 μg/ml), and after 24 h of incubation, EGFP-positive cells were sorted using FACSMelody (BD Bioscience, San Jose, CA, USA). To stablise NIH3T3 oncogene-expressing cells, cells were infected using lentivirus-containing medium supplemented with polybrene (8 μg/ml), and after 24 h of incubation, the infected cells were selected using 2 μg/ml blasticidin for 1 week.

Data set [8] in a line: in vitro. Details: CellTiter-Glo viability of parental Ba/F3 cells with IL-3 (counter-screen). Conditions: mouse, parental ba/f3 cells +il-3; with IL-3; read-out: IC50 parental Ba/F3 (+IL-3). On the procedure: To identify drugs that can overcome these mutations, we screened our focused 90-inhibitor library using Ba/F3 cells expressing EML4-ALK I1171N + F1174I and I1171N + L1198H. At a concentration of 50 nM, gilteritinib suppressed the viability of both wild-type (WT) and compound mutant Ba/F3 cells (Fig. 1a). Since gilteritinib has reported as multi-kinase inhibitor, we first evaluated whether the ALK inhibitory efficacy of gilteritinib is driven by on-target activity or not. As a result of western blot analysis, gilteritinib suppressed the autophosphorylation of ALK in EML4-ALK-expressing Ba/F3 cells (Fig. 1b and Supplementary Fig. 1). […] As well as Ba/F3 cell model, we verified the activity of gilteritinib to H3122 cell line that is EML4-ALK-positive NSCLC cells. […] Then, the inhibitory concentration of gilteritinib is matched between ALK phosphorylation and its downstream signals. […] Further, using the phosphoproteomics data, kinase substrate-enrichment analysis (KSEA) predicted activate kinase candidates as potential gilteritinib targets and identified ALK as the most likely regulated protein (Fig. 1e, Supplementary Figs. 3 and 4, and Supplementary Table 2).  Fig. 1 Identification of gilteritinib as an inhibitor of ALK-rearranged cancer cells. a Relative cell viability of parental (with IL-3), EML4-ALK wild-type (WT), EML4-ALK I1171N + F1174I, and EML4-ALK I1171N + L1198H Ba/F3 cells treated with 50 nM of the indicated inhibitors. Cell viability was analyzed using the CellTiter-Glo assay and calculated relative to the viability of dimethyl sulfoxide-treated Ba/F3 cells. b The suppression of phospho-ALK in I1171N + F1174I, I1171N + L1198H mutation-expressing Ba/F3 cells was evaluated using western blotting. Cells were treated with the indicated concentrations of gilteritinib for 3 h (n = 2). c The suppression of phospho-ALK and its downstream signals in H3122 parental cells and I1171N + F1174I compound mutation-expressing cells were evaluated using western blotting. […] N = 3 independent samples examined over three independent experiments and representative experiment data are presented as mean values ± SD. e Volcano plot displaying the −log10 (p-value) versus log2 (gilteritinib treatment/DMSO treatment) for all quantified phosphopeptides. The red diamond indicates phospho-ALK.

With `Cc1cc(Nc2ncc(Cl)c(Nc3ccccc3S(=O)(=O)C(C)C)n2)c(OC(C)C)cc1C1CCNCC1` [Ceritinib], the IC50 was determined as 10 ± 3.6 nM in data set [1] (read-out: Ceritinib IC50); 15 ± 2.1 nM in data set [2] (read-out: Ceritinib IC50); 30 ± 3 nM in data set [3] (read-out: Ceritinib IC50); 12 ± 3.3 nM in data set [4] (read-out: Ceritinib IC50); 16 ± 6.9 nM in data set [5] (read-out: Ceritinib IC50); 74 ± 22 nM in data set [6] (read-out: Ceritinib IC50). In addition, in data set [7], it took […] to reach half-maximal inhibition (IC50). Moreover, in data set [8], the CC50 at 72 h is 623 ± 33 nM.

In the case of `C[C@@H](Oc1cc(-c2cnn(C3CCNCC3)c2)cnc1N)c1c(Cl)ccc(F)c1Cl` [Crizotinib], the IC50 worked out at 28 ± 14 nM in data set [1] (read-out: Crizotinib IC50), 136 ± 14 nM in data set [3] (read-out: Crizotinib IC50), 51 ± 5.3 nM in data set [5] (read-out: Crizotinib IC50) and […] in data set [7]. The CC50 at 72 h in data set [8] came out at 371 ± 50 nM.

Consider `CCc1cc2c(cc1N1CCC(N3CCOCC3)CC1)C(C)(C)c1[nH]c3cc(C#N)ccc3c1C2=O` [alectinib], for which the IC50 in data set [1] (read-out: Alectinib IC50) turned out to be 3.8 ± 1.2 nM; in data set [5] (read-out: Alectinib IC50), 43 ± 7.5 nM; in data set [6] (read-out: Alectinib IC50), 765 ± 97 nM; in data set [7], […]. In addition, in data set [8], the CC50 at 72 h amounted to 899 ± 12 nM.

With `COc1cc(N2CCC(N3CCN(C)CC3)CC2)ccc1Nc1ncc(Cl)c(Nc2ccccc2P(C)(C)=O)n1` [Brigatinib], the IC50 in data set [1] (read-out: Brigatinib IC50) is 3.5 ± 1 nM; in data set [2] (read-out: Brigatinib IC50), 7.9 ± 3.7 nM; in data set [3] (read-out: Brigatinib IC50), 7.7 ± 0.46 nM; in data set [4] (read-out: Brigatinib IC50), 6.2 ± 1.5 nM; in data set [5] (read-out: Brigatinib IC50), 7.1 ± 2 nM; in data set [6] (read-out: Brigatinib IC50), 63 ± 11 nM. For the same compound, in data set [7], the IC50 was […]. Moreover, in data set [8], the CC50 at 72 h was 578 ± 113 nM.
